The test has as its target T1, α-amylase.
T1 construct: gene AMY2; porcine pancreas is only a guess from usual DNSA assay practice
The test is described as follows: DNSA alpha-amylase inhibition assay, nonlinear regression. Type of test: biochemical. Conditions: enzyme source, substrate, pH and temperature not stated; triplicate.

In brackets after ≈: the same amount, converted by molar mass.

Compound `CC(=O)C1=C(O)C=C2NC(=O)NC3=CC(O)=C(C(C)=O)C1(c1ccccc1)C23` (stereo not shown) [compound 1, 1,1′-(5,8-Dihydroxy-2-oxo-6a-phenyl-2,3,3a1,6a-tetrahydro-1H-perimidine-6,7-diyl)bis(ethan-1-one)] registered an IC50 of 34.60 ± 1.43 µg/mL (≈ 91.4 µM).

A word on the IC50: it is the concentration that inhibits the measured activity by half. Lower therefore signals greater potency.

The values above are taken from paper PMC12376908, “Synthesis and radiolabelled evaluation of novel pyrimidine derivatives as dual α-amylase inhibitors and GIT-targeted molecular imaging probe” (RSC Advances, 2025).
